What was measured:
[1] = Stability of Budesonide solution formulations: recovery of budesonide after storage; type: physicochemical
Protocol: Cans of Budesonide in solution according to the following formulation were manufactured: […]
Budesonide 400 mg (200 mcg/shot)
Anodized and lacquered cans and non ethanol extracted valves were utilized. The cans were put on stability at 50° C. (inverted)
Cans with the same formulation were prepared and in this case ethanol extracted valves were utilized.

[2] = Stability of Budesonide solution formulations: determination of degradation products (related substances); type: physicochemical
Protocol: Two cans of anodized aluminum prepared as per example 2 were submitted to the determination of degradation products of the active ingredient.
It was noticed in this way that after a lag time of 6 months at 40° C. the degradation rate increases with the same pattern seen in the first example. […] An explanation of the process is that peroxides may leach into the solution after a while, thus starting a radicalic degradation of Budesonide.

- Degradation observed ([1]; anodized and lacquered cans, non ethanol extracted valves, 50° C. inverted): high degree of degradation
- Stability of the solution formulation ([1]; ethanol extracted valves, compared with non extracted valves (Example 1)): much higher stability
- Lag time after which the degradation rate increases ([2]; 40° C., anodized aluminum cut edge cans, ethanol extracted valves, inverted, does not occur if stored upright): 6 months
- Stability of the solution ([2]; finishing of the cans changed from cut edge to rolled neck): greatly increased
Compound: CCCC1O[C@@H]2C[C@H]3[C@@H]4CCC5=CC(=O)C=C[C@]5(C)[C@H]4[C@@H](O)C[C@]3(C)[C@]2(C(=O)CO)O1 (stereo partly shown) [Budesonide]
